Values of other authors in US10363268B2, “Proton-binding polymers for oral administration” (Tricida, Inc., priority 2013, dated 2019).

Tested on: adult patients with CKD

O=C([O-])O.[Na+] [sodium bicarbonate, Sodium bicarbonate]
patients experiencing rapid progression (rapid decline of CrCl >3 ml/min per 1.73 m^2/yr) (CKD patients, 2 years): 9%
patients who developed ESRD (CKD patients, 2 years, ESRD = CrCl<10 ml/min): 6.5%
decline in CrCl (CKD patients, oral sodium bicarbonate for 2 years, average dose 1.82 g/day): 1.88 ml/min per 1.73 m^2
relative risk of ESRD (versus control group): 0.13
relative risk of rapid progression (versus control group): 0.15
